The source of these data is patent US9434733B2, “PDE9 inhibitors with imidazo triazinone backbone” (H. Lundbeck A/S, priority 2012, dated 2016).

For the assay, the target named is PDE9 (Homo sapiens (Human), UniProt O76083). As to the kind of experiment: PDE9 inhibition assay. It counts as biochemical. Conditions: 10 nM 3H-cAMP, 1 hour incubation, yttrium silicate SPA beads; read-out: PDE9_IC50. The method, then: Reactions are initiated by addition of the cyclic nucleotide substrate, and reactions are allowed to proceed for one hr at room temperature before being terminated through mixing with 15 uL 8 mg/mL yttrium silicate SPA beads (Amersham).
Following a 1 hour incubation the reactions were terminated by addition of 15 uL 8 mg/mL yttrium silicate SPA beads (Amersham). […] IC50 values were calculated by non linear regression using XLfit (IDBS).

PDE9, sequence (O76083 whole entry): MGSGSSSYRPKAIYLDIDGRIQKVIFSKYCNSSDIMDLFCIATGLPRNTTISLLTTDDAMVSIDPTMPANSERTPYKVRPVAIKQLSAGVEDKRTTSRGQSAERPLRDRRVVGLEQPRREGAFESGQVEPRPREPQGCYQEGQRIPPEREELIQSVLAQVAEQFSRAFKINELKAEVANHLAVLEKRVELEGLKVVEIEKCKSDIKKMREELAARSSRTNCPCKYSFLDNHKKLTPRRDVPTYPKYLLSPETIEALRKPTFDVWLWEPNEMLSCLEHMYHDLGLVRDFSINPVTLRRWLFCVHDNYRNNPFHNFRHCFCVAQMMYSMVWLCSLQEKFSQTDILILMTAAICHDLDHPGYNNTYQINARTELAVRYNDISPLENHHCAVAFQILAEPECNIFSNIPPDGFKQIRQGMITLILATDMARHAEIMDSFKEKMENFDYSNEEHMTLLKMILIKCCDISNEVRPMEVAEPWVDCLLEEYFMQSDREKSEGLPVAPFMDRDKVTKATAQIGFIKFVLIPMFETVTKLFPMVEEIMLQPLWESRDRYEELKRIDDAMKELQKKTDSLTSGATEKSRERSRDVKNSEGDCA

In the case of `O=c1[nH]c(CN2CC(Oc3cccnc3)C2)nn2c(C3CCOCC3)ncc12` [2-[[3-(3-pyridyloxy)azetidin-1-yl]methyl]-7-tetrahydropyran-4-yl-3H-imidazo[5,1-f][1,2,4]triazin-4-one], the IC50 turned out to be 350 nM.
